According to patent US20220016193A1, “ANTIBACTERIAL AND ANTIVIRUS COMPOSITION COMPRISING Extract of CANNABIS SATIVA L” (FAMENITY CO., LTD., priority 2020, published 2022):

What was measured:
Test in all cases: agar diffusion method using a paper disk
[1] = tested on: Escherichia coli (KCTC7039); settings: 2.5 mg/ml, 48 hours
Procedure: (§1) In order to measure the antibacterial activities of the Cannabis sativa L. extract (CE) and extract mixtures AM1 to AM6 produced in Production Example 1, a modification of the agar diffusion method (Piddock, L. J. V, Techniques used for the determination of antimicrobial resistance and sensitivity in bacteria, J. Appl. Bacteriol, 68, p. 307, 1990) using a paper disk was performed as follows.
(§2) The bacterial strains were used after subculture (Candida albicans: 24° C., Bacillus subtilis: 30° C., Streptococcus mutans: 37° C., Staphylococcus aureus: 37° C., and Escherichia coli: 37° C.).
(§3) One loop of each of the prepared strains was taken and inoculated in 5 ml of saline, and 1 ml of each of the active solutions was inoculated into a 4 to 5-mm-thick medium (Candida albicans—YM Agar (271210. BD), Bacillus subtilis—Nutrient Agar (213000 BD), Streptococcus mutans—Brain Heart (241830 BD), Staphylococcus aureus—Tryptic Soy Agar (236950 BD), Escherichia coli—Nutrient Agar (213000 BD); incubator: EYELA Multi-Thermo incubator MTI-202), and then spread evenly with a bent glass rod. […]
(§4) The solvent of each injected extract mixture was volatilized, and incubation was performed at 37° C. for 48 hours. Then, the diameter of the inhibition zone formed around each paper disc was measured. […]

[2] = tested on: Bacillus subtilis (KCTC1021); settings: 2.5 mg/ml, 48 hours
Procedure: as §1, §2, §3, §4

[3] = tested on: Streptococcus mutans (KCTC3065)
Procedure: as §1, §2, §3, §4

[4] = tested on: Staphylococcus aureus (KCTC1621); settings: 2.5 mg/ml, 48 hours
Procedure: as §1, §2, §3, §4

[5] = tested on: Candida albicans (KCTC7270); settings: 2.5 mg/ml, 48 hours
Procedure: as §1, §2, §3, §4

## COc1ccc(O)c(C(C)(C)C)c1 [BHA, butylated hydroxyanisole]
[1]
  Inhibition zone: 18.4 mm
[2]
  Inhibition zone: 16.6 mm
[3]; Streptococcus mutans, 2.5 mg/ml, 48 hours
  Inhibition zone: 3.5 mm
[3]; against S. mutans
  antibacterial effect (in words): little antibacterial effect
[4]
  Inhibition zone: 16.0 mm
[5]
  Inhibition zone: 16.0 mm
